{"source": "patent US20250090596A1", "about": "“MODULATING INFLAMMATION ASSOCIATED WITH FOREIGN BODY RESPONSE” (CRISPR Therapeutics AG, priority 2023, published 2025)", "key": {"athymic rats [1]": {"test_system": "athymic rats", "test": "Previous in vivo sensitivity studies of a similar combination product with unmodified cells", "conditions": "unmodified-cell combination product, drug in chow", "description": "(§1) The administration of the calcineurin inhibitors was achieved through formulation into the chow fed to the animals (athymic rats)."}, "VCTX211 implants": {"test_system": "VCTX211 implants", "test": "GSIS test of VCTX211 implants under calcineurin inhibitor chow;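 also: athymic nude rats each carrying two subcutaneous VCTX211-loaded perforated delivery devices, fed calcineurin inhibitor or control chow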", "assay_type": "in vivo, Rat (Rattus norvegicus)", "description": "Provided in this Example are in vivo efficacy evaluations of VCTX211 combination products (e.g., genetically modified cells loaded into a perforated delivery device) to assess potential sensitivity of exposure to calcineurin inhibitors. In this study, athymic nude rats each received two implants of compositions comprising genetically modified cells disclosed herein (e.g., VCTX211) each.\nVCTX211 test articles (e.g., perforated delivery devices loaded with genetically modified cells disclosed herein) were first generated with pancreatic endoderm cell (PEC-211; e.g., comprising B2M KO and KI of TNFAIP3 and PD-L1; and KO of TXNIP and KI of MANF and HLA-E) aggregates derived from VCTX211 stem cell progenitor cells. To do so, the thaw and culture of PEC-211 aggregates was first performed in roller bottles. On the third day post-thaw, 20 μL aliquots of settled pellet volume (approximately 9×10^6 cells) were prepared and loaded into sterilized PD20 devices (e.g., perforated cell delivery device) to produce VCTX test articles. […] After formulation, test articles were maintained at room temperature in 10 mL storage tubes with media for 2 days.\nPrior to implant, 30 male athymic nude rats (described in Table 19) were randomly assigned to three groups of ten animals each, and unbiased weight distribution was confirmed. […] At implant, each animal was surgically implanted subcutaneously with two VCTX test articles. The animals then continued to receive their respective chow. […] At 12 weeks, all animals were switched to standard rodent chow (Teklad 2920X, Envigo)."}, "[2]": {"assay_type": "in vivo, Rat (Rattus norvegicus)", "description": "Prior to implant, 30 male athymic nude rats (described in Table 19) were randomly assigned to three groups of ten animals each, and unbiased weight distribution was confirmed. […] At implant, each animal was surgically implanted subcutaneously with two VCTX test articles. The animals then continued to receive their respective chow. Group 1 and 3 animals received their respective chow for 12 weeks, while Group 2 animals only tolerated the tacrolimus-containing chow for 3 weeks. […] At 12 weeks, all animals were switched to standard rodent chow (Teklad 2920X, Envigo)."}, "athymic rats [3]": {"test_system": "athymic rats", "conditions": "rat, in vivo", "description": "as §1"}, "PEC-211 cells": {"test_system": "PEC-211 cells", "test": "In vitro differentiation of PEC-211 to stage 6 in presence of Tacrolimus, flow cytometry", "assay_type": "cell-based, human", "conditions": "0.1 μM, 10 days", "experimental": "Evaluation of the PEC-211 cells in the presence of Tacrolimus was performed in vitro. Stage 4 Pancreatic progenitor PEC-211 cells were further differentiated to stage 6 to produce matured islet like cell population in presence of 0.1 μM of Tacrolimus for 10 days. Control PEC-211 cells were not treated with Tacrolimus."}, "[4]": {"conditions": "individual animals, serum, 90 min after glucose"}, "[5]": {"conditions": "individual animals, serum, fasted"}}, "note": "Values joined by “and” are separate entries in the source; they are usually repeats but may differ in a detail not shown here. Equal values may be shown once.", "data": [{"smiles": "C=CC[C@@H]1/C=C(\\C)C[C@H](C)C[C@H](OC)[C@H]2O[C@@](O)(C(=O)C(=O)N3CCCC[C@H]3C(=O)O[C@H](/C(C)=C/[C@@H]3CC[C@@H](O)[C@H](OC)C3)[C@H](C)[C@@H](O)CC1=O)[C@H](C)C[C@@H]2OC", "note": "[TAC, tacrolimus]", "values": [{"measurement": "effect on development or function of beta cells derived from the implants", "setting": "athymic rats [1]", "value": "did not appear to affect"}, {"measurement": "functional development of VCTX211 grafts, evaluated with GSIS tests, compared to control animals", "setting": "VCTX211 implants; cyclosporine A 12 weeks, tacrolimus 3 weeks", "value": "not affected"}, {"measurement": "C-peptide, 16 Weeks, 60 min", "setting": "VCTX211 implants; individual animals, serum, 60 min after glucose", "value": "1131 pM and 1798 pM and 720 pM and 1365 pM and 3073 pM and 700 pM"}, {"measurement": "C-peptide, 12 Weeks, 90 min", "setting": "VCTX211 implants; [4]", "value": "1933 pM and 1504 pM and 627 pM and 428 pM and 1178 pM and 1271 pM"}, {"measurement": "C-peptide, 16 Weeks, 90 min", "setting": "VCTX211 implants; [4]", "value": "1312 pM and 1545 pM and 1271 pM and 1207 pM and 1782 pM and 1140 pM"}, {"measurement": "C-peptide, 12 Weeks, Fast", "setting": "VCTX211 implants; [5]", "value": "113 pM and 123 pM and 119 pM and 107 pM and 147 pM and 109 pM"}, {"measurement": "C-peptide, 16 Weeks, Fast", "setting": "VCTX211 implants; [5]", "value": "282 pM and 253 pM and 273 pM and 227 pM and 302 pM and 219 pM"}, {"measurement": "animals died or euthanized in extremis", "setting": "[2]; by 3 weeks, group of 10", "value": 3, "unit": "animals"}, {"measurement": "average loss of body weight", "setting": "[2]; rat, in vivo", "value": 8, "unit": "%"}, {"measurement": "dose-limiting finding preventing increased exposure", "setting": "athymic rats [3]", "value": "toxicity resulting in inappetence and severe weight loss"}, {"measurement": "exposure levels versus target levels for prophylactic use in clinical organ transplantation", "setting": "athymic rats [3]", "value": "below target levels"}, {"measurement": "effect on in vitro differentiation to islet cells", "setting": "PEC-211 cells", "value": "did not affect"}, {"measurement": "CHGA-NKX6.1+ PDX1+ or- (Pancreatic Progenitor)", "setting": "PEC-211 cells; Stage 6 cells, flow cytometry", "value": 16.9}, {"measurement": "Total CHGA+", "setting": "PEC-211 cells; Stage 6 cells, flow cytometry", "value": 76.3}, {"measurement": "Total GCG+", "setting": "PEC-211 cells; Stage 6 cells, flow cytometry", "value": 36.6}, {"measurement": "Total INS+", "setting": "PEC-211 cells; Stage 6 cells, flow cytometry", "value": 70.4}, {"measurement": "Total NKX6.1+", "setting": "PEC-211 cells; Stage 6 cells, flow cytometry", "value": 48.7}]}]}
